From patent US20060183733A1, “Treating microvasculature diseases with acetyl cholinesterase inhibitors” (priority 2005, published 2006)
Several values for one entry are separate records, joined by “and”; a condition that tells them apart may be missing. Equal values may be shown once. Entries after “also recorded” stand apart in the source; their conditions may differ.

What was measured:
[1] = test system: patients with chronic renal insufficiency; assay: Patient case histories: chronic renal insufficiency (serum creatinine, BUN); assay type: in vivo, human
From the text: To postpone or avoid the sequelae of chronic renal insufficiency, treatment with acetylcholinesterase inhibitors increase the concentration of acetycholine available to promote blood flow to the renal cortex preventing loss of nephrons and allowing existing renal parenchyma to provide the vital function of the kidney. Just as parasympathetic outflow provide homeostatic neural input to the elimination of function of the intestine, the same parasympathetic innervation provides vasodilatation of the small arterioles supplying the cortex of the kidneys allowing for optimal functioning.

[2] = test system: patients with myofascial pain / fibromyalgia; assay: Patient case histories: fibromyalgia / myofascial pain syndrome; assay type: in vivo, human; conditions: donepizil 5 mg daily
From the text: The present invention provides a method for treating fibromyalgia and myofascial pain syndrome by increasing tissue levels of acetylcholine. Acetylcholine is the neurotransmitter of the parasympathic nervous system. The inventive method increases the relative amount of parasympathetic transmission and thereby facilitates resolution of the pain areas and diminishes the need for narcotics and polypharmacy. The reduction in the use of narcotics, NSAIDs, and tricyclic antidepressants and other medications used for pain having their deleterious side effects is a major benefit. By administration of acetyl cholinesterase inhibitor, the relative concentrations of acetylcholine are increased and available to propagate the impulses of the parasympathic nervous systems and within the non-neuronal acetylcholine receptors diminishing pain and spasms. […] The influence of non-neuronal acetylcholine receptors affected by enhanced levels of acetylcholine produces a reduction in pro-inflammatory mediators and increased blood flow to the nerve fibers involved in pain transmission. The net effect is a reduction in inflammation and improved blood flow to the vasovasorum of the affected nerves reducing the painful sensations.

[3] = test system: patients with Parkinson's disease; conditions: donepizil decreased from 10 mg to 5 mg daily
[4] = test system: patients with peripheral vascular disease and diabetes mellitus; assay: Patient case histories: microvascular disease / vascular insufficiency; assay type: in vivo, human; conditions: for side effects: donepizil 5-10 mg daily
From the text: In summary, vascular insufficiency from diabetes is associated with compromise of the microvascular circulation. Treatment with an effective dose of an acetylcholinesterase inhibitor raises the relative concentration of acetylcholine promoting vasodilitation of the microcirculation (end arterioles) through stimulation of neuronal and non-neuronal acetylcholine receptors in the intima of the blood vessels. The beneficial effects of promoting vasodilitation and enhanced tissue perfusion correcting the dystrophic changes and alleviating ischemic pain and ulcers is readily apparent in this series of patients.
The present invention provides a method for the medical management of peripheral vascular disease. The management of peripheral vascular disease with acetylcholinesterase inhibitor addresses the central dilemma in vascular perfusion of the lower extremities. By increasing the relative concentration of acetylcholine, the parasympthetic nervous system is enhanced, improving blood flow at the tissue level by relaxation of the small end arterioles and improving perfusion therefore decreasing vascular edema, enhancing resolution of trohpic ulcers and alleviating rest pain and claudication complaints. The parasympathetic nervous system controls vascular beds in the small arterioles and by increasing the available acetylcholine, dilatation occurs and blood flow improves. By treatment with acetylcholinesterase inhibitors the end results in improved vascular blood supply, decreased congestion at the small arterioles level and improved blood supply. This is particularly necessary in diabetic patients. The presence of non-neuronal acetylcholine receptors with the intima of blood vessels at the microvascular level represents a second physiologic mechanism whereby dilatation of small blood vessels is facilitated by the use of an acetylcholinesterase inhibitor. This latter mechanism owing to the sensitive nature of the cholinesterases associated with the non neuronal acetylcholine system provides sustained cholinergic activity impacting the microvascular circulation and improving perfusion at the critical end arteriole-capillary-venule level.

[5] = test system: patients with phantom pain; assay: Patient case histories: phantom pain following amputation; assay type: in vivo, human; conditions: donepizil 5 mg daily
From the text: The present invention further provides a method of treating phantom pain following amputation in both upper and lower extremities. “Phantom pain” is a phenomenon described following amputation of either an upper or lower extremity. The sensation is common following amputation and present with varying degrees of discomfort and debility. A patient with phantom pain is typically treated with antidepressants, Neurontin® (gabapeninand) narcotics to a varying degree. The use of acetylcholinesterase inhibitors decreases the need for narcotics and generally eliminates the need for poly pharmacy improving pain, enhancing wound healing and improved sleep pattern in amputee patients. The dose of acetylcholinesterase inhibitor is titrated to GI (gastrointestinal) tolerance with bowel movement consistency and frequency the determining factors. Treatment with acetylcholinesterase inhibitor increases the available acetylcholine which is the neurotransmitter responsible for activation of the parasysmpathic nervous system appear responsible for Noxious symptoms of phantom pain for discomfort. The present invention provides a method of treating phantom pain associated with amputation of either upper or lower extremity.

[6] = test system: patients with urinary retention; assay: Patient case histories: urinary retention (voiding trials, post void residuals)
[7] = test system: patients with rheumatologic conditions (RA, SLE, PMR, polymyositis); assay: Patient case histories: rheumatological conditions; assay type: in vivo, human
From the text: The use of an acetylcholinesterase inhibitor raises level of acetylcholine by inhibition of cholinesterase. The Increased levels of acetylcholine stimulate neuronal receptors of the parasympathetic nervous system and non-neuronal receptors associated with the intima of blood vessels and leukocytes. This dual effect of improving flow within the microvascular circulation and stabilization of leukocytes and their adhesion to the wall of blood vessel produces the anti-inflammatory effect that is observed with the use of an acetylcholinesterase inhibitor for treatment of rheumatologic diseases.

[8] = test system: patients with lymphedema; assay type: in vivo, human; conditions: donepizil 5 mg orally daily
From the text: The improvement in perfusion within the small arterioles decreases the hydrostatic pressure at the end arterioles and therefore reduces interstitial fluid accumulation that impedes the return of lymph fluid within the lymphatic vessels. The physics model for this phenomenon makes use of Bernouli's equation and its relationship to a Venturi tube. Hydrostatic pressure proximal to a relative stricture creates a pressure gradient that leads to increased transudation that overwhelms the capacity of the lymphatic system to manage. The vasodilatory effects of the parasympathetic nervous system upon small arterioles produces improved perfusion and lessens the accumulation of lymphedema. A common example of lymphedema occurs following joint replacement surgery with swelling that persists for three to six months and sometimes permanently. Lymphedema following joint replacement surgery slows recovery and creates pain while predisposing to deep vein thrombosis and infection.

## COc1cc2c(cc1OC)C(=O)C(CC1CCN(Cc3ccccc3)CC1)C2 (stereo not shown) [donepizil, 1-benzyl-4->(5,6-dimethoxy-1-indanon)-2-yl methylpiperidine]
[1]; donepizil 5 mg daily one month then 10 mg daily one month, before treatment 1.8
  serum creatinine: 0.8
[1]; donepizil 5 mg one week then 10 mg daily, two weeks of treatment, 5.5 on admission, on hemodialysis (Parkinson's patient)
  serum creatinine: 4.2
[1]; donepizil 5 mg orally daily
  side effects: no untoward side effects; also recorded: no evidence of metabolic acidosis or hyperkalemia; also recorded: no adverse side effects
[1]; donepizil 5 mg orally daily one month after switch from galantamine, 1.8 before any treatment
  serum creatinine: 1.0
[1]; donepizil 5 mg orally daily one month after switch from galantamine, 32 before any treatment
  BUN (blood urea nitrogen): 14
[1]; donepizil 5 mg orally daily, 4 weeks/one month, before treatment 1.7, 1.8, 1.4, 1.6, 1.7
  serum creatinine: 1.0 and 1.4 and 1.1 and 1.6 and 0.9
[1]; donepizil 5 mg orally daily, about 6 weeks, before treatment b104 1.4, b106 1.8
  serum creatinine: 1.0 and 1.1
[1]; donepizil 5 mg orally daily, about 6 weeks, before treatment b104 37, b106 30
  BUN (blood urea nitrogen): 21 and 19
[1]; donepizil 5 mg orally daily, three weeks, before treatment 2.8, on lisinopril
  serum creatinine: 1.4
[1]; donepizil 5 mg orally daily, three weeks, before treatment 39
  BUN (blood urea nitrogen): 26
[1]; donepizil 5 mg orally daily, two to three months, before treatment 1.7, 1.8, 1.7
  serum creatinine: 1.1 and 0.9 and 1.2
[1]; donepizil 5 mg orally daily, two to three months, before treatment b96 48, b110 35
  BUN (blood urea nitrogen): 20 and 19
[1]; donepizil 5 mg orally daily, two weeks, before treatment 30
  BUN (blood urea nitrogen): 22
[1]; donepizil 5 mg orally daily, up to two weeks, before treatment b100 1.6, b106 1.8
  serum creatinine: 1.3
[1]; donepizil 10 mg daily continued for the next month, 5.5 on admission, hemodialysis discontinued
  serum creatinine: 2.1
[2]
  clinical outcome (pain, narcotic use): able to eliminate their use of long acting; also recorded: decreased pain complaints in their neck; also recorded: controlled without the use of narcotics or NSAID's; also recorded: improvement in their back pain complaints; also recorded: pain complaints were significantly reduced over a four-week period; also recorded: no recurrence of their back pain or leg cramps; also recorded: no recurrence of cramps
  side effects: no reported GI upset or diarrhea; also recorded: well tolerated; also recorded: no nausea or diarrhea
[3]
  course after dose reduction: notable deterioration in their motor function and a return of Parkinsonian symptoms
[4]; donepizil 5 mg daily, 2 weeks to >1 year, single patients, listed as donepezil
  clinical outcome (vascular edema, ulcers, pain, foot temperature): the heel ulcer completely resolved
[4]
  side effects: no diarrhea or ulcer symptoms; also recorded: No serious untoward side effects were noted; also recorded: able to tolerate this treatment for the next 6 months; also recorded: No deleterious side effects such a diarrhea or acid reflux were noted; also recorded: no diarrhea or symptoms of gastrointestinal reflux; also recorded: without any untoward side effects; also recorded: without deleterious side affects such a diarrhea or acid reflux; also recorded: absence of any adverse side effects
[4]; listed as donepezil
  side effects: without nausea/vomiting or diarrhea symptoms
[4]; donepizil increased to 10 mg daily, additional one month (a person)
  clinical outcome (ulcers, edema, phantom discomfort): near complete healing of the leg ulcers and complete resolution of their edema
[5]
  clinical outcome (phantom pain, sleep): dramatic improvement in here phantom discomfort; also recorded: prompt improvement in their pain control; also recorded: phantom pain diminished to the point they no longer required Oxycotin®; also recorded: notable improvement in leg discomfort; also recorded: much improved phantom discomfort and improved sleep; also recorded: no symptoms of vascular insufficiency in their contralateral extremity
[6]; donepizil 5 mg orally daily with Detrol LA 2 mg orally daily
  post void residuals (PVR's): less than 100 cc
[6]; donepizil 5 mg orally daily, 24-48 hours or more before the trial
  voiding trial: able to void without incident; also recorded: successful
[7]; donepizil 5 mg orally daily
  clinical outcome (movement, pain, sleep, edema): return of movement in their feet bilaterally; also recorded: improved sleep pattern and decreased pain; also recorded: edema previously noted in their feet bilaterally resolved; also recorded: became ambulatory; also recorded: improvement in their pain complaints and decreased swelling in their ankles bilaterally
[7]; donepizil 5 mg orally daily, Polymyalgia Rheumatica
  erythrocyte sedimentation rate (ESR), follow up: in the normal range
[7]; donepizil 10 mg daily, Systemic Lupus Erythematosis
  clinical outcome (strength, swelling, vision): improved strength in their arms; also recorded: resolved as well as dysesthesias; also recorded: improved but not sufficient to allow for ambulation; also recorded: no return of vision; also recorded: return of movement in their feet bilaterally with decreased lower extremity swelling
[7]; donepizil 10 mg, SLE patient with urinary retention
  post void residuals: less than 100 cc
[7]; donepizil 5-10 mg daily
  side effects: no symptoms of diarrhea or nausea; also recorded: without incident, adverse side effects or deterioration in their condition; also recorded: no symptoms of diarrhea; also recorded: no untoward side effects
[8]
  side effects: suffered symptoms of diarrhea or nausea
